Measurements reported in patent US20140350285A1, “NOVEL POLYMORPHS OF N-[2-AMINO-4-(4-FLUOROBENZYLAMINO)-PHENYL] CARBAMIC ACID ETHYL ESTER AND PROCESSES THEREOF” (SYMED LABS LIMITED, priority 2012, published 2014).
Converted amounts (≈) assume the structure as drawn.

Key:
[1] = Comparative solubility profile of crystalline forms in diluents
[2] = Polymorphic stability on storage, analysed by XRPD; format: physicochemical; conditions: stored at 25° C.±2° C., about 70% RH (result sentence: about 76% RH), 6 weeks
[3] = Chemical and polymorphic stability under stability testing conditions; format: physicochemical; conditions: 25±2° C. and 75% RH, inert atmosphere
[4] = diluent: Solvent Methylene chloride

## CCOC(=O)Nc1ccc(NCc2ccc(F)cc2)cc1N [Modification-B, N-[2-amino-4-(4-fluorobenzylamino)-phenyl]carbamic acid ethyl ester]
[1]; diluent: Solvent Acetone
  Solubility: 280 mg/mL (≈ 923 mM)
[1]; diluent: Solvent Alcohol (96%)
  Solubility: 22 mg/mL (≈ 72.5 mM)
[1]; diluent: Solvent DMSO
  Solubility: 700 mg/mL (≈ 2310 mM)
[1]; [4]
  Solubility: 80 mg/mL (≈ 264 mM)
[1]; diluent: Water
  Solubility: <0.1 mg/mL
[1]; diluent: pH Buffer 1.2 pH
  Solubility: 10 mg/mL (≈ 33 mM)
[1]; diluent: pH Buffer 4.5 pH
  Solubility: <0.1 mg/mL
[1]; diluent: pH Buffer 8.5 pH
  Solubility: <0.1 mg/mL

## CCOC(=O)Nc1ccc(NCc2ccc(F)cc2)cc1N [Form-I, N-[2-amino-4-(4-fluorobenzylamino)-phenyl]carbamic acid ethyl ester]
[1]
  Solubility profile compared to known polymorphs (crystalline modifications A, B, and C): better solubility profile
[1]; diluent: Solvent Acetone
  Solubility: 290 mg/mL (≈ 956 mM)
[1]; diluent: Solvent Alcohol (96%)
  Solubility: 25 mg/mL (≈ 82.4 mM)
[1]; diluent: Solvent DMSO
  Solubility: 700 mg/mL (≈ 2310 mM)
[1]; [4]
  Solubility: 40 mg/mL (≈ 132 mM)
[1]; diluent: Water
  Solubility: <0.1 mg/mL
[1]; diluent: pH Buffer 1.2 pH
  Solubility: 10 mg/mL (≈ 33 mM)
[1]; diluent: pH Buffer 4.5 pH
  Solubility: <0.1 mg/mL
[1]; diluent: pH Buffer 8.5 pH
  Solubility: <0.1 mg/mL
[2]
  Polymorphic stability (XRPD): polymorphically stable
[3]
  Chemical and polymorphic stability: substantially stable chemically and polymorphically

## CCOC(=O)Nc1ccc(NCc2ccc(F)cc2)cc1N [Form-II, N-[2-amino-4-(4-fluorobenzylamino)-phenyl]carbamic acid ethyl ester]
[1]
  Solubility profile compared to known polymorphs (crystalline modifications A, B, and C): better solubility profile
[1]; diluent: Solvent Acetone
  Solubility: 250 mg/mL (≈ 824 mM)
[1]; diluent: Solvent Alcohol (96%)
  Solubility: 24 mg/mL (≈ 79.1 mM)
[1]; diluent: Solvent DMSO
  Solubility: 700 mg/mL (≈ 2310 mM)
[1]; [4]
  Solubility: 70 mg/mL (≈ 231 mM)
[1]; diluent: Water
  Solubility: <0.1 mg/mL
[1]; diluent: pH Buffer 1.2 pH
  Solubility: 10 mg/mL (≈ 33 mM)
[1]; diluent: pH Buffer 4.5 pH
  Solubility: <0.1 mg/mL
[1]; diluent: pH Buffer 8.5 pH
  Solubility: <0.1 mg/mL
[2]
  Polymorphic stability (XRPD): polymorphically stable
[3]
  Chemical and polymorphic stability: substantially stable chemically and polymorphically

## CCOC(=O)Nc1ccc(NCc2ccc(F)cc2)cc1N [Modification-A, N-[2-amino-4-(4-fluorobenzylamino)-phenyl]carbamic acid ethyl ester]
[1]; diluent: Solvent Acetone
  Solubility: 280 mg/mL (≈ 923 mM)
[1]; diluent: Solvent Alcohol (96%)
  Solubility: 23 mg/mL (≈ 75.8 mM)
[1]; diluent: Solvent DMSO
  Solubility: 800 mg/mL (≈ 2640 mM)
[1]; [4]
  Solubility: 50 mg/mL (≈ 165 mM)
[1]; diluent: Water
  Solubility: <0.1 mg/mL
[1]; diluent: pH Buffer 1.2 pH
  Solubility: 13 mg/mL (≈ 42.9 mM)
[1]; diluent: pH Buffer 4.5 pH
  Solubility: <0.1 mg/mL
[1]; diluent: pH Buffer 8.5 pH
  Solubility: <0.1 mg/mL

## CCOC(=O)Nc1ccc(NCc2ccc(F)cc2)cc1N [Modification-C, N-[2-amino-4-(4-fluorobenzylamino)-phenyl]carbamic acid ethyl ester]
[1]; DMSO, organic solvent or mixture, Solubility, diluent: Solvent DMSO
  Solubility: 700 mg/mL (≈ 2310 mM)
[1]; acetone, organic solvent or mixture, Solubility, diluent: Solvent Acetone
  Solubility: 310 mg/mL (≈ 1020 mM)
[1]; alcohol (96%), organic solvent or mixture, Solubility, diluent: Solvent Alcohol (96%)
  Solubility: 16 mg/mL (≈ 52.7 mM)
[1]; methylene chloride, organic solvent or mixture, Solubility, diluent: Solvent Methylene chloride
  Solubility: 50 mg/mL (≈ 165 mM)
[1]; pH buffer, pH 1.2, simulated gastric fluid, Solubility, diluent: pH Buffer 1.2 pH
  Solubility: 11 mg/mL (≈ 36.3 mM)
[1]; pH buffer, pH 4.5, aqueous buffer, Solubility, diluent: pH Buffer 4.5 pH
  Solubility: < 0.1 mg/mL
[1]; pH buffer, pH 8.5, aqueous buffer, Solubility, diluent: pH Buffer 8.5 pH
  Solubility: < 0.1 mg/mL
[1]; water, Solubility, diluent: Water
  Solubility: < 0.1 mg/mL
